# Source: ChEMBL document CHEMBL1201862, “PubChem BioAssay data set” (2004)
#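 Cultured in 96-well plates, cells were exposed to test compound for 48 hours across five concentrations. Here, GI50 denotes the concentration required for 50% inhibition of growth.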 Activity calls are given as the source filed them. No stated cut-off is given here; in the data, active = GI50 up to about 1.1 µM and inactive = higher.
# Columns and labels:
# Assay in all cases: inhibition of tumour cell growth, NCI panel, 48 h
# 786-0 = tested on: 786-0
# A549 = tested on: A549
# ACHN = tested on: ACHN
# CAKI-1 = tested on: CAKI-1
# CCRF-CEM = tested on: CCRF-CEM
# COLO 205 = tested on: COLO 205
# DLD-1 = tested on: DLD-1
# DMS-273 = tested on: DMS-273
# EKVX = tested on: EKVX
# HCC 2998 = tested on: HCC 2998
# HCT-15 = tested on: HCT-15
# HL-60 = tested on: HL-60
# HOP-62 = tested on: HOP-62
# HOP-92 = tested on: HOP-92
# IGROV-1 = tested on: IGROV-1
# K562 = tested on: K562
# KM-20L2 = tested on: KM-20L2
# KM12 = tested on: KM12
# LOX IMVI = tested on: LOX IMVI
# LXFL 529 = tested on: LXFL 529
# M14 = tested on: M14
# M19-MEL = tested on: M19-MEL
# MOLT-4 = tested on: MOLT-4
# Malme-3M = tested on: Malme-3M
# NCI-H23 = tested on: NCI-H23
# NCI-H460 = tested on: NCI-H460
# NCI-H522 = tested on: NCI-H522
# OVCAR-3 = tested on: OVCAR-3
# OVCAR-4 = tested on: OVCAR-4
# OVCAR-5 = tested on: OVCAR-5
# OVCAR-8 = tested on: OVCAR-8
# RPMI-8226 = tested on: RPMI-8226
# RXF 393 = tested on: RXF 393
# RXF 631 = tested on: RXF 631
# SF-268 = tested on: SF-268
# SF-295 = tested on: SF-295
# SK-MEL-28 = tested on: SK-MEL-28
# SK-MEL-2 = tested on: SK-MEL-2
# SK-MEL-5 = tested on: SK-MEL-5
# SK-OV-3 = tested on: SK-OV-3
# SN12C = tested on: SN12C
# SNB-19 = tested on: SNB-19
# SNB-75 = tested on: SNB-75
# SNB-78 = tested on: SNB-78
# SW-620 = tested on: SW-620
# TK-10 = tested on: TK-10
# UACC-257 = tested on: UACC-257
# UACC-62 = tested on: UACC-62
# UO-31 = tested on: UO-31
# XF498 = tested on: XF498
# DMS-114 = tested on: DMS-114
# HCT-116 = tested on: HCT-116
# HT-29 = tested on: HT-29
# NCI-H226 = tested on: NCI-H226
# SF-539 = tested on: SF-539
# SR = tested on: SR
# U-251 = tested on: U-251
# A498 = tested on: A498
compound,measurement,setting,value
COc1cc(OC)cc(N2CCC(c3c(N)nc(N)nc3Cl)CC2)c1,GI50,786-0,> 100 µM (inactive)
same,GI50,A549,65 µM (inactive)
same,GI50,ACHN,70.5 µM (inactive)
same,GI50,CAKI-1,> 100 µM (inactive)
same,GI50,CCRF-CEM,47.1 µM (inactive)
same,GI50,COLO 205,58.1 µM (inactive)
same,GI50,DLD-1,75.7 µM (inactive)
same,GI50,DMS-273,> 100 µM (inactive)
same,GI50,EKVX,95.3 µM (inactive)
same,GI50,HCC 2998,67.5 µM (inactive)
same,GI50,HCT-15,99.5 µM
same,GI50,HL-60,18 µM (inactive)
same,GI50,HOP-62,62.2 µM (inactive)
same,GI50,HOP-92,48.4 µM (inactive)
same,GI50,IGROV-1,> 100 µM (inactive)
same,GI50,K562,31.6 µM (inactive)
same,GI50,KM-20L2,> 100 µM (inactive)
same,GI50,KM12,66.4 µM (inactive)
same,GI50,LOX IMVI,> 100 µM (inactive)
same,GI50,LXFL 529,37.8 µM (inactive)
same,GI50,M14,75.3 µM (inactive)
same,GI50,M19-MEL,> 100 µM (inactive)
same,GI50,MOLT-4,31.5 µM (inactive)
same,GI50,Malme-3M,31 µM (inactive)
same,GI50,NCI-H23,> 100 µM (inactive)
same,GI50,NCI-H460,53.7 µM (inactive)
same,GI50,NCI-H522,41.3 µM (inactive)
same,GI50,OVCAR-3,83.9 µM (inactive)
same,GI50,OVCAR-4,91.8 µM (inactive)
same,GI50,OVCAR-5,> 100 µM (inactive)
same,GI50,OVCAR-8,> 100 µM (inactive)
same,GI50,RPMI-8226,16.9 µM (inactive)
same,GI50,RXF 393,> 100 µM (inactive)
same,GI50,RXF 631,> 100 µM (inactive)
same,GI50,SF-268,98.2 µM (inactive)
same,GI50,SF-295,83 µM (inactive)
same,GI50,SK-MEL-28,52.8 µM (inactive)
same,GI50,SK-MEL-2,92.3 µM (inactive)
same,GI50,SK-MEL-5,24.8 µM (inactive)
same,GI50,SK-OV-3,> 100 µM (inactive)
same,GI50,SN12C,> 100 µM (inactive)
same,GI50,SNB-19,> 100 µM (inactive)
same,GI50,SNB-75,47.6 µM (inactive)
same,GI50,SNB-78,> 100 µM (inactive)
same,GI50,SW-620,65 µM (inactive)
same,GI50,TK-10,> 100 µM (inactive)
same,GI50,UACC-257,43.7 µM (inactive)
same,GI50,UACC-62,52.6 µM (inactive)
same,GI50,UO-31,62.8 µM (inactive)
same,GI50,XF498,26.3 µM (inactive)
CC1(C)CCC[C@@]2(C)C1CC[C@H]1CC(O)C3(C)CCC12C3 (stereo not given in full),GI50,786-0,17.5 µM (inactive)
same,GI50,A549,18.7 µM (inactive)
same,GI50,ACHN,17.9 µM (inactive)
same,GI50,CAKI-1,16.6 µM (inactive)
same,GI50,CCRF-CEM,26.4 µM (inactive)
same,GI50,DLD-1,17.1 µM (inactive)
same,GI50,DMS-114,17.3 µM (inactive)
same,GI50,HCC 2998,19.8 µM (inactive)
same,GI50,HCT-116,17.3 µM (inactive)
same,GI50,HCT-15,18.2 µM
same,GI50,HL-60,23.3 µM (inactive)
same,GI50,HOP-62,19.1 µM (inactive)
same,GI50,HOP-92,15.6 µM (inactive)
same,GI50,HT-29,18.2 µM (inactive)
same,GI50,IGROV-1,22.2 µM (inactive)
same,GI50,K562,32.1 µM (inactive)
same,GI50,KM-20L2,18.9 µM (inactive)
same,GI50,KM12,17.5 µM (inactive)
same,GI50,LOX IMVI,15.4 µM (inactive)
same,GI50,LXFL 529,17.2 µM (inactive)
same,GI50,M14,17.1 µM (inactive)
same,GI50,M19-MEL,21.1 µM (inactive)
same,GI50,MOLT-4,22 µM (inactive)
same,GI50,Malme-3M,16.9 µM (inactive)
same,GI50,NCI-H226,20 µM (inactive)
same,GI50,NCI-H23,18.7 µM (inactive)
same,GI50,NCI-H460,18.5 µM (inactive)
same,GI50,NCI-H522,16.6 µM (inactive)
same,GI50,OVCAR-3,16.7 µM (inactive)
same,GI50,OVCAR-4,18.1 µM (inactive)
same,GI50,OVCAR-5,18.2 µM (inactive)
same,GI50,OVCAR-8,18.5 µM (inactive)
same,GI50,RPMI-8226,25.8 µM (inactive)
same,GI50,RXF 393,13.3 µM (inactive)
same,GI50,RXF 631,19.1 µM (inactive)
same,GI50,SF-268,19.2 µM (inactive)
same,GI50,SF-539,18.9 µM (inactive)
same,GI50,SK-MEL-28,18.4 µM (inactive)
same,GI50,SK-MEL-5,17.5 µM (inactive)
same,GI50,SK-OV-3,18.3 µM (inactive)
same,GI50,SN12C,16.9 µM (inactive)
same,GI50,SNB-19,18 µM (inactive)
same,GI50,SNB-75,22.9 µM (inactive)
same,GI50,SNB-78,17.2 µM (inactive)
same,GI50,SR,21.3 µM (inactive)
same,GI50,SW-620,17.1 µM (inactive)
same,GI50,TK-10,14.4 µM (inactive)
same,GI50,U-251,18.2 µM (inactive)
same,GI50,UACC-257,18.2 µM (inactive)
same,GI50,UACC-62,15.8 µM (inactive)
same,GI50,UO-31,17.5 µM (inactive)
same,GI50,XF498,17.4 µM (inactive)
c1coc(CNc2[nH]cnc3nncc2-3)c1,GI50,786-0,> 100 µM (inactive)
same,GI50,A498,> 100 µM (inactive)
same,GI50,A549,> 100 µM (inactive)
same,GI50,ACHN,> 100 µM (inactive)
same,GI50,CAKI-1,> 100 µM (inactive)
same,GI50,CCRF-CEM,> 100 µM (inactive)
same,GI50,COLO 205,> 100 µM (inactive)
same,GI50,DLD-1,> 100 µM (inactive)
same,GI50,DMS-114,44.5 µM (inactive)
same,GI50,DMS-273,> 100 µM (inactive)
same,GI50,EKVX,> 100 µM (inactive)
same,GI50,HCC 2998,> 100 µM (inactive)
same,GI50,HCT-116,> 100 µM (inactive)
same,GI50,HCT-15,> 100 µM
same,GI50,HL-60,87.9 µM (inactive)
same,GI50,HOP-62,> 100 µM (inactive)
same,GI50,HOP-92,35.8 µM (inactive)
same,GI50,HT-29,> 100 µM (inactive)
same,GI50,IGROV-1,> 100 µM (inactive)
same,GI50,K562,57.8 µM (inactive)
same,GI50,KM-20L2,> 100 µM (inactive)
same,GI50,KM12,> 100 µM (inactive)
same,GI50,LOX IMVI,> 100 µM (inactive)
same,GI50,LXFL 529,> 100 µM (inactive)
same,GI50,M14,> 100 µM (inactive)
same,GI50,M19-MEL,> 100 µM (inactive)
same,GI50,MOLT-4,> 100 µM (inactive)
same,GI50,Malme-3M,> 100 µM (inactive)
same,GI50,NCI-H226,> 100 µM (inactive)
same,GI50,NCI-H23,79.6 µM (inactive)
same,GI50,NCI-H460,> 100 µM (inactive)
same,GI50,NCI-H522,> 100 µM (inactive)
same,GI50,OVCAR-3,> 100 µM (inactive)
same,GI50,OVCAR-4,> 100 µM (inactive)
same,GI50,OVCAR-5,> 100 µM (inactive)
same,GI50,OVCAR-8,> 100 µM (inactive)
same,GI50,RPMI-8226,73.8 µM (inactive)
same,GI50,RXF 393,> 100 µM (inactive)
same,GI50,RXF 631,> 100 µM (inactive)
same,GI50,SF-268,> 100 µM (inactive)
same,GI50,SF-295,> 100 µM (inactive)
same,GI50,SF-539,> 100 µM (inactive)
same,GI50,SK-MEL-28,> 100 µM (inactive)
same,GI50,SK-MEL-2,> 100 µM (inactive)
same,GI50,SK-MEL-5,> 100 µM (inactive)
same,GI50,SK-OV-3,> 100 µM (inactive)
same,GI50,SN12C,> 100 µM (inactive)
same,GI50,SNB-19,> 100 µM (inactive)
same,GI50,SNB-75,38.5 µM (inactive)
same,GI50,SNB-78,> 100 µM (inactive)
same,GI50,SR,57.1 µM (inactive)
same,GI50,SW-620,> 100 µM (inactive)
same,GI50,TK-10,> 100 µM (inactive)
same,GI50,U-251,> 100 µM (inactive)
same,GI50,UACC-257,> 100 µM (inactive)
same,GI50,UACC-62,> 100 µM (inactive)
same,GI50,UO-31,70.3 µM (inactive)
same,GI50,XF498,> 100 µM (inactive)
